{"source": "patent US7112685B2", "about": "“Labeled resiniferatoxin derivatives” (Ortho-McNeil Pharmaceutical, Inc., priority 2000, dated 2006)", "molecular_target": "T1, hVR1 receptors (Homo sapiens, UniProt Q8NER1)", "T1 construct": "expressed in transfected cells; host or cells: HEK293 cells (membranes)", "T1 sequence (Q8NER1 whole entry)": "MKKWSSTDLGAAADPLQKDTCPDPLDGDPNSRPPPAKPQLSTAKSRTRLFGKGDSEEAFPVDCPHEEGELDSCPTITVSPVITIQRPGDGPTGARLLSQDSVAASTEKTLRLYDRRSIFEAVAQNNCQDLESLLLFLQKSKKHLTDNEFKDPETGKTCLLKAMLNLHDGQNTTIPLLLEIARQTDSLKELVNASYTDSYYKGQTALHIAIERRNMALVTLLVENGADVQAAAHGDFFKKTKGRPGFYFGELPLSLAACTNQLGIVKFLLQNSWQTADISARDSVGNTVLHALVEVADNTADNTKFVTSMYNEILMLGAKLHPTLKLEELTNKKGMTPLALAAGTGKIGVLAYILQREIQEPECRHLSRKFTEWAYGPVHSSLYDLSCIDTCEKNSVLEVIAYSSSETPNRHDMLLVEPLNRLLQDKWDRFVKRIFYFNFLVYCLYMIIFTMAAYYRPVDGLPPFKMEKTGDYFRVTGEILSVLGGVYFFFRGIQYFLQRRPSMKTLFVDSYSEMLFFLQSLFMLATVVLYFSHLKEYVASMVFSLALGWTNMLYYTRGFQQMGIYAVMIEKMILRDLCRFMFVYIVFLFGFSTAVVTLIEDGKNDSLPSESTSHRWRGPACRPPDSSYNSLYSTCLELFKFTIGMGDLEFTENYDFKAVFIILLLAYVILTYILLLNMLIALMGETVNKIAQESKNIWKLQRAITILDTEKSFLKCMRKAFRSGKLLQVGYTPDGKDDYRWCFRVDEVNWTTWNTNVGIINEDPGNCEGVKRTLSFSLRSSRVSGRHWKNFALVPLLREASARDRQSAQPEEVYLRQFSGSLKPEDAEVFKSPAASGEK", "test": "[3H] RTX Binding Assay (inhibition of [3H] RTX binding to membranes of HEK293 cells transfected with human VR1)", "protocol": "Iodinated RTX derivatives of the present invention were tested for their ability to inhibit the binding of [^3H] RTX to hVR1 receptors in a [^3H] RTX Binding Assay.\nHEK293 cells were transfected with human VRI vanilloid receptors, as described in U.S. patent application Ser. No. 09/292700 to Dubin, A., et. al, filed on Apr. 15, 1999 (herein incorporated by reference), and washed with Hank's Balanced Salt Solution, dissociated with cell dissocation buffer (Sigma), and then centrifuged at 1000 x g for 5 min. Cell pellets were homogenized in cold 20 mM HEPES buffer, pH 7.4, containing 5.8 mM NaCl, 320 mM sucrose, 2 mM MgCl2, […] and 5 mM KCl and centrifuged at 1000 x g for 15 min. The resultant supernate was then centrifuged at 40,000 x g for 15 min. The pelleted membranes were kept in an −80° C. freezer.\nThe assay procedure was modified from that described in Szallasi, A. and Blumberg, P. M., “[^3H] Resiniferatoxin binding by the vanilloid receptor: specific-related differences, effect of temperature and sulfhydryl reagents” (Naunyn-Schmiedeberg's Arch. Pharmacol., 1993, 347, 84-91). Briefly, about 120 μg protein/ml from membranes were incubated with indicated concentrations of [^3H] RTX in 0.5 ml of the HEPES buffer (pH 7.4) containing 0.25 mg/mL fat acid-free bovine serum albumin at 37° C. for 60 min. The reaction mixture was then cooled to 4° C., added 0.1 mg α1-acid glycoprotein to each sample and incubated at 4° C. for 15 min. The samples were centrifuged at 18500 x g for 15 min. The tip of the microcentrifuge tube containing the pellet was cut off. Bound radioactivity was quantified by scintillation counting. Non-specific binding was tested in the presence of 200 nM unlabeled RTX.\nMembrane Incubation with [^3H] RTX and lodinated RTX Derivatives\nMembranes were incubated with [^3H] RTX (0.4 nM) and varying concentrations of iodinated RTX derivatives at 37° C. for 60 min. […] RTX binding.", "note": "Like-named read-outs stand apart in the source and are kept apart here.", "data": [{"smiles": "C=C(C)C12CC(C)C34OC(Cc5ccccc5)(OC1C3C=C(COC(=O)Cc1cc(OC)c(OC(C)=O)cc1I)CC1(O)C(=O)C(C)=CC14)O2", "note": "(stereo not drawn) [Compound 1, 9,13,14-Orthophenylacetylresiniferonyl-20-(3-acetoxy-4-methoxy-6-Iodophenylacetate)]", "values": [{"measurement": "IC50", "result": "0.31 ± 0.06", "unit": "nM"}]}, {"smiles": "C=C(C)C12CC(C)C34OC(Cc5ccccc5)(OC1C3C=C(COC(=O)Cc1cc(OC)c(O)cc1I)CC1(O)C(=O)C(C)=CC14)O2", "note": "(stereo not drawn) [Compound 2, 9,13,14-Orthophenylacetylresiniferonyl-20-(3-hydroxy-4-methoxy-6-iodophenylacetate)]", "values": [{"measurement": "IC50", "result": "0.22 ± 0.03", "unit": "nM"}]}, {"smiles": "C=C(C)[C@]12C[C@@H](C)[C@@]34O[C@](Cc5ccccc5)(O[C@@H]1[C@@H]3C=C(COC(=O)Cc1ccc(O)c(OC)c1)C[C@]1(O)C(=O)C(C)=C[C@@H]41)O2", "note": "[RTX, resiniferatoxin]", "values": [{"measurement": "IC50", "setting": "[3H] RTX 0.4 nM, 37° C. for 60 min, HEK293 membranes, two experiments, each point in duplicate, read-out: IC50 Value for Binding to a hVR1 Receptor", "result": "0.09 ± 0.12", "unit": "nM"}]}]}
